One assay addresses human cyclin D1-CDK4 (Homo sapiens, UniProt P11802). Description: FlashPlate kinase assay, IC50 measurement, cyclin D1-CDK4. Type of assay: biochemical. Particulars: Rb protein substrate, 1 μM ATP. On the procedure: (§1) To determine inhibition of Cdk4, Cdk2 and Cdk1 activity, kinase assays were conducted using FlashPlate™ assays (NEN™-Life Science Products). FlashPlate assays were performed using recombinant human cyclin B-CDK1, human cyclin E-CDK2 or human cyclin D1-CDK4 complexes. GST-cyclinE (GST-cycE), CDK2, GST-cyclinB (GST-cycB), CDK1, GST-CDK4 and cyclin D1 (cycD1) cDNA clones in baculovirus vectors were provided by Dr. W. Harper at the Baylor College of Medicine, Houston, Tex. Proteins were co-expressed in High Five™ insect cells and the complex was purified on glutathione Sepharose resin (Pharmacia, Piscataway, N.J.) as previously described (Harper, J. W. et al. Cell 1993, 75, 805–816). A 6×-Histidine tagged truncated form of retinoblastoma (Rb) protein (amino acid 386–928) was used as the substrate for the cycD1-CDK4, cycB-CDK1 and the cycE-CDK2 assays (the expression plasmid was provided by Dr. Veronica Sullivan, Department of Molecular Virology, Roche Research Centre, Welwyn Garden City, United Kingdom). The Rb protein is a natural substrate for phosphorylation by CDK4, CDK2 and CDK1 (see Herwig and Strauss Eur. J. Biochem. Vol. 246 (1997) pp. 581–601 and the references cited therein).
(§2) The expression of the 62 Kd protein was under the control of an IPTG inducible promoter in an M15 E. coli strain. Cells were lysed by sonication and purification was carried out by binding lysates at pH 8.0 to a Ni-chelated agarose column pretreated with 1 mM imidazole. The resin was then washed several times with incrementally decreasing pH buffers to pH 6.0, and eluted with 500 mM imidazole. Eluted protein was dialysed against 20 mM HEPES pH 7.5, 30% glycerol, 200 mM NaCl, and 1 mM DTT. Purified Rb fusion protein stocks were quantitated for protein concentration, aliquoted, and stored at −70° C.
(§3) For all three kinase assays reported herein, 96-well FlashPlates were coated with Rb protein at 10 μg/ml, using 100 μl per well. Plates were incubated at 4° C. overnight or at room temperature for 3 hours on a shaker. To control for nonspecific phosphorylation, one row of wells was coated with 100 μl/well coating buffer (20 mM HEPES, 0.2 M NaCl). Plates were then washed twice with wash buffer (0.01% Tween 20 in phosphate-buffered saline). Compounds to be tested (“test compounds”) were added to the wells at 5× final concentration. Reactions were initiated by immediate addition of 40 μl reaction mix (25 mM HEPES, 20 mM MgCl2, 0.002% Tween 20, 2 mM DTT, 1 μM ATP, 4 nM ^33P-ATP) and a sufficient amount of enzyme to give counts that were at least 10-fold above background. Plates were incubated at room temperature on a shaker for 30 minutes. Plates were washed four times with the wash buffer, sealed, and counted on the TopCount scintillation counter (Packard Instrument Co., Downers Grove, Ill. The percent inhibition of Rb phosphorylation, which is a measure of the inhibition of CDK activity, was determined according to the following formula:
(§4) [formula] where “test compound” refers to the average counts per minute of the test duplicates, “nonspecific” refers to the average counts per minute when no CyclinD/Cdk4, etc., was added, and “total” refers to the average counts per minute when no compound was added. The IC50 value is the concentration of test compound that reduces by 50% the protein-kinase induced incorporation of the radiolabel under the test conditions described. B: Ki Measurement

The target of a further assay is human cyclin B-CDK1 (Homo sapiens, UniProt P06493). Description: FlashPlate kinase assay, IC50 measurement, cyclin B-CDK1. It is filed as biochemical. Particulars: Rb protein substrate, 1 μM ATP. On the procedure: as §1, §2, §3, §4
Sequence of human cyclin B-CDK1 (P06493 whole entry): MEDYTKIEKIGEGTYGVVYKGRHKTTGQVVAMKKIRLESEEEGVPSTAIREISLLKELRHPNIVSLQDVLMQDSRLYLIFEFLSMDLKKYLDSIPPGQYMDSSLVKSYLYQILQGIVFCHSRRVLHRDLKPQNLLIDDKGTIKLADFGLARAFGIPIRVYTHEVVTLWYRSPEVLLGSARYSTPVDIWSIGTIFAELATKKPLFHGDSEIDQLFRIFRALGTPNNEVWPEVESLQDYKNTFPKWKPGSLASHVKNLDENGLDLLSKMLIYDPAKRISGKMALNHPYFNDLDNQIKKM
Sequence of human cyclin B-CDK1 (P14635 whole entry partner): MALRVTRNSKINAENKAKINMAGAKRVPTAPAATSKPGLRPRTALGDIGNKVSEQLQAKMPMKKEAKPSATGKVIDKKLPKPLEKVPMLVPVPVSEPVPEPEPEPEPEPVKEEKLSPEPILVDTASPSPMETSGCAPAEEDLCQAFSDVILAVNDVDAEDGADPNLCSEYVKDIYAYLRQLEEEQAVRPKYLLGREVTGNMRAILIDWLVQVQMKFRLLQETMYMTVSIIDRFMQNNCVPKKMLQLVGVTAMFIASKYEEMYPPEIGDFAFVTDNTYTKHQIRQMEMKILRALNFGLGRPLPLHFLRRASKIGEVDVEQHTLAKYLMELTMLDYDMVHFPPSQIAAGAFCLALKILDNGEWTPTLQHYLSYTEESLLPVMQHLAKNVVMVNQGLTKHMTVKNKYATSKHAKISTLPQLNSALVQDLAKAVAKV
The next assay deals with human cyclin E-CDK2 (Homo sapiens, UniProt P24941). Put plainly: FlashPlate kinase assay, IC50 measurement, cyclin E-CDK2. Type of assay: biochemical. Particulars: Rb protein substrate, 1 μM ATP; read-out: CDK2 IC50. On the procedure:
To determine inhibition of Cdk4, Cdk2 and Cdk1 activity, kinase assays were conducted using FlashPlate™ assays (NEN™-Life Science Products). FlashPlate assays were performed using recombinant human cyclin B-CDK1, human cyclin E-CDK2 or human cyclin D1-CDK4 complexes. GST-cyclinE (GST-cycE), CDK2, GST-cyclinB (GST-cycB), CDK1, GST-CDK4 and cyclin D1 (cycD1) cDNA clones in baculovirus vectors were provided by Dr. W. Harper at the Baylor College of Medicine, Houston, Tex.
as §2, §3
[formula] where “test compound” refers to the average counts per minute of the test duplicates, “nonspecific” refers to the average counts per minute when no CyclinD/Cdk4, etc., was added, and “total” refers to the average counts per minute when no compound was added. […] B: Ki Measurement

Another assay concerns HCT116 cells. Put plainly: Tetrazolium dye proliferation assay (MTT assay). Conditions: Homo sapiens, HCT-116; 90% inhibition of cell proliferation, HCT116 colorectal carcinoma cell line. Type of assay: cell-based. Here is the method:
The cell line used was HCT116, a colorectal carcinoma cell line obtained from the American Type Cell Culture Collection (ATCC; Rockville, Md.). The cells were grown in McCoy's 5A medium supplemented with 10% FCS and L-glutamine.
Cells were plated at the appropriate seeding density to give logarithmic growth over the course of the assay in a 96-well tissue culture plate. Plates were incubated overnight at 37° C. in a humidified incubator with 5% CO2. The next day, test compounds were serially diluted to four times the final concentration in the appropriate medium containing 1.2% DMSO. One-fourth final volume of each dilution was added in duplicate to the plates containing cells. The same volume of 1.2% DMSO in medium was added to a row of “control wells” such that the final concentration of DMSO in each well was 0.3%. Wells to which no cells were added served as the “blank.” Wells to which no inhibitor was added served as “no inhibitor control.” The plates were) returned to the incubator, and at set time points (determined by their growth curves) plates were analyzed as described below.
3-(4,5-dimethylthiazole-2-yl)-2,5-diphenyl-2H-tetrazolium bromide (thiazolyl blue; MTT; Sigma) was added to each well to yield a final concentration of 1 mg/ml. Plates were returned to the incubator for 2.5–3 hours at 37° C. The MTT-containing medium was removed and the resulting formazan metabolite was solubilized in 100% ethanol with shaking for 15 minutes at room temperature. Absorbance readings were taken in a microtiter plate reader (Dynatech and Molecular Devices plate readers were used interchangeably) at a wavelength of 570 nm with a 650 nm reference. Percent inhibition (% INH) is calculated by subtracting the absorbance of the blank well from all wells, then subtracting the ratio of the average absorbance of each test duplicate (SAVE) by the average of the controls (CAVE) from 1.00. The final number is then multiplied by 100(% INH=(1.00−SAVE/CAVE)×100).

IC50 and IC90 data for 2 compounds are collected here from US7157455B2, “4-Aminopyrimidine-5-one derivatives” (Hoffmann-La Roche Inc., priority 2003, dated 2007).

Molecules are shown by their SMILES.

Sequence of human cyclin D1-CDK4 (P11802 whole entry): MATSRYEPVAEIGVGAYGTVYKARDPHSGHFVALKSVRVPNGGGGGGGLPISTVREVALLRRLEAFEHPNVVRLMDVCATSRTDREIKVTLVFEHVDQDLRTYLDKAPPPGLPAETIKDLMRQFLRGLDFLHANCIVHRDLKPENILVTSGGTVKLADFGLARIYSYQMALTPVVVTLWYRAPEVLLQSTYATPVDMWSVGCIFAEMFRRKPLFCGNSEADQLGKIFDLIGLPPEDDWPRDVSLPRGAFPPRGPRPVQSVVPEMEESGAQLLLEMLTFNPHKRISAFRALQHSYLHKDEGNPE
Sequence of human cyclin D1-CDK4 (P24385 whole entry partner): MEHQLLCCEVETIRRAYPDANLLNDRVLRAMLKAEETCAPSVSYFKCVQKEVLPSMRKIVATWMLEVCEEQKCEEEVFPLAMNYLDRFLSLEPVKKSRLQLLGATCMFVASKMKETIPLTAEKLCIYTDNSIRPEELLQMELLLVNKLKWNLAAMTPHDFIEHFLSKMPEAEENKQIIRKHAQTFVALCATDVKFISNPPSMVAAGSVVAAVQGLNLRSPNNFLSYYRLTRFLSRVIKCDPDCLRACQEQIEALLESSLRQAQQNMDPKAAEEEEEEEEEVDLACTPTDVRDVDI

What is called IC50 is the concentration at which inhibition is half-maximal. For orientation: IC90 means the point of the concentration-response curve where the effect stands at 90%. A lower IC90 goes with greater potency. Take `COC(=O)N1CCCC(Nc2ncc(C(=O)c3ccccc3OC)c(N)n2)C1` (centres unmarked) [Example 54, 3-[4-Amino-5-(2-methoxy-benzoyl)-pyrimidin-2-ylamino]-piperidine-1-carboxylic acid methyl ester]: the half-maximal inhibitory concentration (IC50) on human cyclin D1-CDK4 amounted to 459 nM; against human cyclin B-CDK1 it was 469 nM; at human cyclin E-CDK2 it was 713 nM. The same compound returned a concentration for an effect of 90% (IC90) in the assay with HCT116 cells of 6.44 µM.
The like results for `COc1ccc(F)c(F)c1C(=O)c1cnc(N[C@H]2CC[C@H](NS(=O)(=O)CCCN3CCOCC3)CC2)nc1N` [Example 294, Trans-3-Morpholin-4-yl-propane-1-sulfonic acid [4-[4-amino-5-(2,3-difluoro-6-methoxy-benzoyl)-pyrimidin-2-ylamino]-cyclohexyl]-amide] were, in that order, 15 nM, 8 nM, 5 nM and 0.374 µM.
